A short description of data set [1]: Pharmacokinetics of intraperitoneal or intravenous injection in CD1 mice. Format: in vivo. As to the method:
The pharmacokinetics of exemplary compounds 103, 107, 100, 101, and 102 was examined for intraperitoneal and intravenous administration. The desired serial concentrations of working solutions were achieved by diluting stock solution (1 mg/mL in DMSO) of analyte with methanol. In particular, 20 μL of working solutions (1, 2, 5, 10, 50, 100, 500, 1000, 2000 ng/mL) were added to 20 μL of the blank CD1 mice plasma to achieve calibration standards of 1-2000 ng/mL (1, 2, 5, 10, 50, 100, 500, 1000, 2000 ng/mL) in a total volume of 40 μL. Dose of IV and IP were diluted by 1000 fold and 10000 with methanol, 20 μL of the diluted dose solutions were added to 20 μL of the blank CD1 mice plasma to achieve dose samples. Next, 40 μL standards and 40 μL dose samples were added to 20 μL of IS (100 ng/mL) and 200 μL of acetonitrile for precipitating protein respectively. Then the samples were vortexed for 30 seconds. After centrifugation at 4 degree Celsius, 4000 rpm for 15 minutes, the supernatant was diluted 3 times with water. 10 μL of the diluted supernatant was injected into the LC/MS/MS system for quantitative analysis.
Exemplary compounds 103, 107, 100, 101, and 102 were administered intravenously (5 second injection of 10% HP-b-CD and 40 mM sodium acetate and 40 mM NaCl in water, pH4.5) or intraperitoneally (5% EtOH and 5% Solutol HS15 in D5W(ESD-2)) to 6-8 week old male CD1 mice (3 mice per treatment group for a total of 12 mice) at the time points indicated below in Table 7. The mice had free access to food and water.
Dorsal metatarsal vein samples (30 μL), except that the final sample was acquired via a heart puncture, were taken from the mice at the same the administration time points as shown in Table 7.

Data set [2] has as its target T1, Fak (Homo sapiens, UniProt Q05397). Kind of data set: Kinase activity assay (Reaction Biology Corp.). Format: biochemical. The conditions noted are these: 10 μM ATP, n = 2. Also on record: purchased Reaction Biology Corp. (contract assay service). How it is done:
Reactions were carried out at 10 μM ATP. IC50 values were calculated using Prism 7.0 (GraphPad).

Data set [3] deals with T1, Fak. Kind of data set: Fak degradation, immunoblotting in PC3 cells. Type of data set: cell-based. Particulars: PC3 cells, 24 hour treatment; for Dmax: PC-3, degradation maximum, n = 3. As to the method: PC3 cells were cultured in F12-K (Kaighn's Modification of Ham's F-12 Medium), supplemented with 10% fetal bovine serum (FBS) and 1% penicillin-streptomycin at 37° C. and 5% CO2.
If not indicated otherwise, cells were seeded and grown to 80% confluency and were treated with compound or control for 24 hours. […] After 20 minutes the mixture was spun down at 16,000×g for 10 minutes at 4° C. to pellet insoluble materials. Protein concentration of supernatants were determined via BCA assay (Thermo Fisher) before addition of NuPAGE sample buffer containing 5% β-Me and boiling at 95° C. for 10 minutes. Equal amounts of protein were subjected to SDS-PAGE and subsequent electrophoretic transfer onto nitrocellulose membrane. […] Immunoblots were developed using enhanced chemiluminescence and visualized using a Bio-Rad Chemi-Doc MP Imaging System and quantitated with Image Lab v.5.2.1 software (Bio-Rad Laboratories). Data analysis and statistics was performed using Prism 7.0 (GraphPad).
Examination of Target Protein (Fak) Degradation.
(Immunoblotting shows a protein as a band on a membrane.)

T1 sequence (Q05397 whole entry): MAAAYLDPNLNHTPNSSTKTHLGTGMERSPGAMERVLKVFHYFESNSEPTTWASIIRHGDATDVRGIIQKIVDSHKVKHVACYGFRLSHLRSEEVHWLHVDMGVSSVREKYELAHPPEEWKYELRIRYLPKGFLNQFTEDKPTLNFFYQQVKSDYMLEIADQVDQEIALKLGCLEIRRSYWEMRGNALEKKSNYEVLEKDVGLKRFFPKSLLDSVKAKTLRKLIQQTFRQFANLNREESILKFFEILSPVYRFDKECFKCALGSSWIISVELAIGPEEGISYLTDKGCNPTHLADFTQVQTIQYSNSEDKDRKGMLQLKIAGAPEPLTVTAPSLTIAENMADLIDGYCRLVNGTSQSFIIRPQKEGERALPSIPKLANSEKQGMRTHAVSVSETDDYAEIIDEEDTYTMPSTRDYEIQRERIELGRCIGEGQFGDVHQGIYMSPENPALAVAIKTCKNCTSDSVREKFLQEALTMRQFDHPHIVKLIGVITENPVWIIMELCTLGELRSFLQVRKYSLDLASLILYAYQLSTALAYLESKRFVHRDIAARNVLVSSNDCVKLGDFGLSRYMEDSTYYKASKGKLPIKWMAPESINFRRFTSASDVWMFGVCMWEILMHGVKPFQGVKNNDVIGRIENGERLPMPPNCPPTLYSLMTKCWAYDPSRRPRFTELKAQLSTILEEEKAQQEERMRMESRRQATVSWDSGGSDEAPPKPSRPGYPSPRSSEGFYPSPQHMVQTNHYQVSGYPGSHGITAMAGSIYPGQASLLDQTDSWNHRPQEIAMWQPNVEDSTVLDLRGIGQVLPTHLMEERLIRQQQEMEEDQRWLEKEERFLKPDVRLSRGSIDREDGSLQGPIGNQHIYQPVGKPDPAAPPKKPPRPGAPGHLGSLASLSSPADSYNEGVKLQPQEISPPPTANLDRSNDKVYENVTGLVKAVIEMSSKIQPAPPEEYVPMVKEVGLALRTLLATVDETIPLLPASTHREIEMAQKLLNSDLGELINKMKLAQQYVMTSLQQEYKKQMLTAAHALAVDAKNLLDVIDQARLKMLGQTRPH

On to “N-(2-((2-(2,6-dioxopiperidin-3-yl)-1,3-dioxoisoindolin-4-yl)oxy)ethyl)-3-(3-(4-((4-((3-(N-methylmethylsulfonamido)benzyl)amino)-5-(trifluoromethyl)pyrimidin-2-yl)amino)phenoxy)propoxy)propanamide [Compound 108]”, for which, in data set [1] (IP), the “AUClast (h * ng/mL) IP” value stood at 208 ng·h/mL and the “T ½ (h) IP” value amounted to 1.10 h. Moreover, in data set [1] (IV), the “AUClast (h * ng/mL) IV” value worked out at 3.80 ng·h/mL and the “T ½ (h) IV” value is recorded as 0.058 h.

In general, IC50 refers to the concentration that gives 50% inhibition. The low end stands for higher potency, the high end for lower potency. The term Dmax denotes the largest share of the target that was removed. Lower therefore signals shallow degradation. By DC50 is commonly meant the concentration giving 50% degradation. Molecule `Cc1ncsc1-c1ccc(CNC(=O)[C@@H]2C[C@@H](O)CN2C(=O)[C@@H](NC(=O)CCOCCOCCOCCOCCOc2ccc(Nc3ncc(C(F)(F)F)c(NCc4cccc(N(C)S(C)(=O)=O)c4)n3)cc2)C(C)(C)C)cc1` [Compound 105, (2S,4R)-1-((S)-17-(tert-butyl)-1-(4-((4-((3-(N-methylmethylsulfonamido)benzyl)amino)-5-(trifluoromethyl)pyrimidin-2-yl)amino)phenoxy)-15-oxo-3,6,9,12-tetraoxa-16-azaoctadecan-18-oyl)-4-hydroxy-N-(4-(4-methylthiazol-5-yl)benzyl)pyrrolidine-2-carboxamide] returned an IC50 against Fak [2] of 6.1 ± 0.1 nM. Further, the Dmax on Fak [3] amounted to 91%. The DC50 at Fak [3] (half-maximal degradation concentration) was determined as 48.1 nM.

Turning to `Cc1ncsc1-c1ccc(CNC(=O)[C@@H]2C[C@H](O)CN2C(=O)[C@@H](NC(=O)CCOCCOc2ccc(Nc3ncc(C(F)(F)F)c(NCc4cccc(N(C)S(C)(=O)=O)c4)n3)cc2)C(C)(C)C)cc1` [Compound 106, (2S,4S)-1-((S)-3,3-dimethyl-2-(3-(2-(4-((4-((3-(N-methylmethylsulfonamido)benzyl)amino)-5-(trifluoromethyl)pyrimidin-2-yl)amino)phenoxy)ethoxy)propanamido)butanoyl)-4-hydroxy-N-(4-(4-methylthiazol-5-yl)benzyl)pyrrolidine-2-carboxamide], the half-inhibitory concentration (IC50) on Fak [2] amounted to 11.2 nM. For the same molecule, on Fak [3], the “Fak degradation / effect on Fak levels (in words)” value was “no Fak degradation” and the Dmax was found to be 0%.
